Reference: patent US11311524B2, “Pharmaceutical composition used for treatment of HTLV-1-associated myelopathy” (DAIICHI SANKYO COMPANY, LIMITED, priority 2017, dated 2022)

Legend:
[1] = test system: HTLV-1 infected cells in HAM patient's PBMC; experiment: HTLV-1 pro-viral load (infected cell rate) in HAM patient-derived PBMC by real time PCR; type: cell-based, human; conditions: 12 days culture; for Reduction in HTLV-1 pro-viral load: 1000 nM, average of all HAM patients; for Cases in which HTLV-1 pro-viral load in HAM patient's PBMC decreases: PBMC of 8 HAM patients
Experimental: PBMC taken from 8 HAM patients were suspended in a culture medium (RPMI1640 culture medium containing 10% FBS) and seeded in a 48-well plate in a ratio of 5×10^5 cells per well, and compound A or compound B was added so as to provide a final concentration of 1, 10, 100 or 1000 nM. The culture solution of 0.5 mL in total was cultured at 37° C. in 5% CO2 conditions for 12 days. A group treated with DMSO and a group treated with PSL (1 μg/mL) were used as controls. Day 12 after initiation of culture, the culture solution was centrifuged, and thereafter, the cell suspension was recovered from each of the cultures carried out under different conditions and centrifuged. After the supernatant was removed, the cell pellet was subjected to genomic DNA extraction. The genome DNA extracted was subjected to real time PCR to measure HTLV-1 pro-viral load (infected cell rate) (Yamano et al., Blood. 2002, 99 (1): 88-94). Based on the HTLV-1 pro-viral load in cells, which were obtained by adding DMSO to each of the HAM patient's PBMC and culturing the PBMC, as 100%, the relative value of HTLV-1 pro-viral load in a group treated with compound A, compound B or PSL was calculated, and then, an average value of 8 HAM patient cases was obtained. The significance test was carried out by using the Friedman test of GraphPad Prism6 (MDF).

[2] = test system: HAM patient-derived PBMC; experiment: IL-10 and other cytokine release from HAM patient-derived PBMC (Cytokine Beads Array); type: cell-based, human; conditions: PBMC of 8 HAM patients, 12 days culture, 1-1000 nM, relative to DMSO
Experimental: PBMC taken from 8 HAM patients were suspended in a culture medium (RPMI1640 culture medium containing 10% FBS), seeded in a 48-well plate in a ratio of 5×10^5 cells per well and a compound A or compound B was added so as to provide a final concentration of 1, 10, 100 or 1000 nM. The culture solution of 0.5 mL in total was cultured at 37° C. in 5% CO2 conditions for 12 days. A group treated with DMSO and a group treated with PSL (1 μg/mL) were used as controls. Day 12 after initiation of the culture, the culture solution was centrifuged, and thereafter, the culture supernatant alone was recovered. The concentration of IL-10 in the culture supernatant was determined by use of the Cytokine Beads Array kit (BD Biosciences) and a flow cytometer FACSCantoII (BD Biosciences) (Yamauchi et al., J Infect Dis. 2015, 211 (2): 238-48). Based on the IL-10 concentration in the culture solution of the DMSO treatment group as 100%, changes in IL-10 concentration of culture solutions of groups treated with compound A and compound B different in concentration or a group treated with PSL (1 μg/mL) were compared. The significance test was carried out by using the Friedman test of GraphPad Prism6 (MDF).

[3] = test system: HCT-4 cells; experiment: Proliferation/viability of HTLV-1 infected cell line HCT-4 (CCK-8); type: cell-based, human; conditions: for Viability of HTLV-1 infected cells vs DMSO group: HCT-4, 1 μM, up to 21 days culture; for GI50: Homo sapiens, 336 h, 14 days culture, CCK-8
Experimental: HCT-4 and HCT-5, which were HTLV-1 infected cell lines established from the cerebrospinal fluid of HAM patients, were donated from a professor, Tatsufumi Nakamura of the Nagasaki International University. HCT-4 was cultured in RPMI1640 culture medium containing 10% FBS (GIBCO), a 1% penicillin-streptomycin solution (Wako) and 100 U/mL IL-2 (Cell Science & Technology Institute, Inc.); whereas HCT-5 was cultured by using 10% FBS, 1% penicillin-streptomycin solution, 1% L-glutamine (SIGMA) and 200 U/mL IL-2. HCT-4 (3×10^6 cells) or HCT-5 (2.5×10^6 cells) were seeded in a culture medium (20 mL) in a 75 cm^2-culture flask. DMSO was added and compound A or B was added so as to provide a final concentration of 1 μM and culture was carried out at 37° C. in 5% CO2 conditions for 21 days while repeating subculture. In the subculture, a culture solution containing HCT-4 treated with DMSO so as to correspond to 3×10^6 cells, whereas a culture solution containing HCT-5 treated with DMSO so as to correspond to 2.5×10^6 cells were taken and each added to a new culture medium to obtain a final volume of 20 mL, and then, further compound A or B was added so as to obtain the same concentration as above. Day 7, 14 and 21 after initiation of culture, cells were recovered from the culture solution and the density of the cells was measured. In this manner, the effect of compound A or B on cell proliferation was examined. The density of cells was determined by seeding cultured cells in a 96-well plate in a volume of 100 μL per well, adding 10 μL of Cell counting kit-8 (CCK-8) (Dojindo Laboratories laboratory) per well, incubating the cells at 37° C. for 3 hours and measuring absorbance at 450 nm by a plate reader (iMark Microplate Reader, Biorad). The proliferation rates of cell groups treated with compound A or compound B were each calculated based on the cell group treated with DMSO as a control. Next, in a 6-well plate, HCT-4 (4.5×10^5 cells) or HCT-5 (3.75×10^5 cells) were seeded. A solution of compound A or B prepared with DMSO was serially diluted (4-fold dilution from 10000 nM was serially repeated 8 times) and added thereto. The cells were repeatedly subcultured at intervals of 3 to 4 days in a culture solution of 3 mL in total at 37° C. in 5% CO2 condition for 14 days. […] The cells cultured for 14 days in individual conditions were recovered and the density of the cells were measured. […] The density of cells was determined by seeding the cultured cells (100 μL) per well in a 96-well plate, adding 10 μL of CCK-8 per well, incubating the cells at 37° C. for 3 hours and measuring absorbance at 450 nm by a plate reader. The proliferation rate of a group treated with compound A or compound B was calculated based on the group treated with DMSO as a control.

[4] = target: EZH2 (Homo sapiens, UniProt Q15910); conditions: from WO2015/141616; cited from earlier work
Sequence of EZH2 (Q15910 whole entry): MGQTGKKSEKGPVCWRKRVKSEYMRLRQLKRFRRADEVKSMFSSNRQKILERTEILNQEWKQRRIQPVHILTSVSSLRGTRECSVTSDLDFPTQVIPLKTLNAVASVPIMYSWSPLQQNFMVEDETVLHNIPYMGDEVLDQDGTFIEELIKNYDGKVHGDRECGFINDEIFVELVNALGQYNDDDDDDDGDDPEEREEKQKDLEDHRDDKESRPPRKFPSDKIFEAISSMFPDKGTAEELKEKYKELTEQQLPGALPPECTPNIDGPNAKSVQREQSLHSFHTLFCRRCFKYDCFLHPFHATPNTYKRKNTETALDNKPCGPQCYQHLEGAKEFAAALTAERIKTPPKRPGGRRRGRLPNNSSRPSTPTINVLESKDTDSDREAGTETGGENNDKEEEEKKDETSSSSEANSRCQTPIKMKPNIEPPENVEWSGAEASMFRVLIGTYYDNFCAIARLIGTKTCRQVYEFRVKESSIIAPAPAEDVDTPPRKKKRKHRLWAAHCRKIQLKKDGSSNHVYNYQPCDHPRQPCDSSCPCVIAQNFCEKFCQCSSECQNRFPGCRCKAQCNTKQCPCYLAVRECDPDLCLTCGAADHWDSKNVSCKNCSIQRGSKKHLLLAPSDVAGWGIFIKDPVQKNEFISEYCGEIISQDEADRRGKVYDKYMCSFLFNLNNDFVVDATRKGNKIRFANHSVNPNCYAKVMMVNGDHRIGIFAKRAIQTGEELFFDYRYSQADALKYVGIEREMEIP
Sequence of EZH2 (O75530 whole entry partner): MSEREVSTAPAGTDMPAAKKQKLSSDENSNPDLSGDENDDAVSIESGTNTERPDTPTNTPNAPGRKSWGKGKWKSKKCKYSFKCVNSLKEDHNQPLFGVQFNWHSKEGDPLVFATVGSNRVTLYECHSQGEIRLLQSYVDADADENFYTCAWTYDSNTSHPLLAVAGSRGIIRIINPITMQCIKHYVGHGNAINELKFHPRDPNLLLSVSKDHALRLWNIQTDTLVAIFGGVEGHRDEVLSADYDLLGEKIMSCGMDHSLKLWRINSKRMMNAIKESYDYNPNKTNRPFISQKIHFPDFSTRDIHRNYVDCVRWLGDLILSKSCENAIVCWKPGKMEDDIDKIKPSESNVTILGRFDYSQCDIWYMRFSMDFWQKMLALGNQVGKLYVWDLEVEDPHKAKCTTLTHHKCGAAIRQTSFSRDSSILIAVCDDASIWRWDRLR
Sequence of EZH2 (Q15022 whole entry partner): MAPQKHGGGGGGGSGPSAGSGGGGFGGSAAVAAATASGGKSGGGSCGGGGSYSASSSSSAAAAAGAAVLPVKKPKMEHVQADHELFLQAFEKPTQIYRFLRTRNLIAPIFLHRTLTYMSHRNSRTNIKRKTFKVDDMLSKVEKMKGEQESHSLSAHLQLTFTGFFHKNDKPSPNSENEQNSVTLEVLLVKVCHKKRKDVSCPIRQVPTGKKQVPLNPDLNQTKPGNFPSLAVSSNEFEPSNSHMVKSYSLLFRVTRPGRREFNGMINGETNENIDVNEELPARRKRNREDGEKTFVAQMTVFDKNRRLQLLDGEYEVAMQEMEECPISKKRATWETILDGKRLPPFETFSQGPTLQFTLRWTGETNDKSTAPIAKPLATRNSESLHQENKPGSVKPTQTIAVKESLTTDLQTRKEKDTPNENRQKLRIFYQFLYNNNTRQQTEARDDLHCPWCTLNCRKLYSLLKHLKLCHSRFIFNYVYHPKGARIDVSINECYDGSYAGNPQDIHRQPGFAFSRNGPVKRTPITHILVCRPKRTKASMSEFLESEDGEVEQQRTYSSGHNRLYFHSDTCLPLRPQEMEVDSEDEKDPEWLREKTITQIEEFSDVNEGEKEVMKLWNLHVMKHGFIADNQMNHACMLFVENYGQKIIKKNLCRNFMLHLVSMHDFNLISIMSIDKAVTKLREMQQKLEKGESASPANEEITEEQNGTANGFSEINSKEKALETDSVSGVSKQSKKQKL
Sequence of EZH2 (Q09028 whole entry partner): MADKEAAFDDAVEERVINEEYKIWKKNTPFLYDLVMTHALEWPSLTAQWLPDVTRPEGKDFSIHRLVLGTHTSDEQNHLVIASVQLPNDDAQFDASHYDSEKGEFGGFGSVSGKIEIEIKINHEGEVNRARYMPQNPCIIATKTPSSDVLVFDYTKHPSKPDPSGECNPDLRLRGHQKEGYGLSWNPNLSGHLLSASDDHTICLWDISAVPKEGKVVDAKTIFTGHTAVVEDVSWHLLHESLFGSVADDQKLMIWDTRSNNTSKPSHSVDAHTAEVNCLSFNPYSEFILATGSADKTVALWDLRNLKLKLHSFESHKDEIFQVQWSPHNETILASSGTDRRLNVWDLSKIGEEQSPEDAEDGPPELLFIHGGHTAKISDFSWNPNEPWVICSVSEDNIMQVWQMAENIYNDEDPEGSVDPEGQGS

Structure (SMILES) | Reduction in HTLV-1 pro-viral load [1] | Cases in which HTLV-1 pro-viral load in HAM patient's PBMC decreases [1] | Yield of IL-10 from PBMC [2] | Viability of HTLV-1 infected cells vs DMSO group [3] | GI50 [3] [nM] | Inhibition of enzyme activity of EZH2 [4]
Cc1cc(C)c(CNC(=O)c2cc(Cl)c3c(c2C)O[C@@](C)([C@H]2CC[C@H](N(C)C)CC2)O3)c(=O)[nH]1 [compound B, (2R)-7-chloro-2-[trans-4-(dimethylamino)cyclohexyl]-N-[(4,6-dimethyl-2-oxo-1,2-dihydropyridin-3-yl)methyl]-2,4-dimethyl-1,3-benzodioxole-5-carboxamide] | significant reduction in pro-viral load | 5 out of 8 | dramatically increased | significantly reduce the viability | 5.92 | inhibit
Cc1cc(C)c(CNC(=O)c2cc(Br)c3c(c2C)O[C@@](C)([C@H]2CC[C@H](N(C)C)CC2)O3)c(=O)[nH]1 [compound A, (2R)-7-bromo-2-[trans-4-(dimethylamino)cyclohexyl]-N-[(4,6-dimethyl-2-oxo-1,2-dihydropyridin-3-yl)methyl]-2,4-dimethyl-1,3-benzodioxole-5-carboxamide] | significant reduction in pro-viral load | 5 out of 8 | dramatically increased | significantly reduce the viability | 7.63 | inhibit
